Laboratory results reported in patent publication US11066711B2, “Biomarkers for predicting Clostridium difficile infection treatment outcome” (Mayo Foundation for Medical Education and Research, priority 2015, dated 2021).

Tested on: Clostridium difficile infection
Assay: Primary CDI treatment outcome in patients with a first CDI episode (clinical cohort)
Format: in vivo, human
Details: 88 patients with first CDI episode; metronidazole versus vancomycin (Table 1)
Text: Patients with a first Clostridium difficile infection (CDI) episode were recruited. Consecutive patient stool samples that led to CDI diagnosis were collected.
Clinical data including demographics, hospitalization, concomitant medications, severity, laboratory parameters, prior and concomitant antibiotic use, initial CDI treatment, treatment response and recurrent CDI were obtained by a review of the electronic medical record.
Treatment failure was defined as non-response to treatment after 5 days of metronidazole treatment or 4 days of vancomycin therapy (Khanna et al., 2012 Am J Gastroenterol 107:89-95; Cohen et al., 2010 Infect Control Hosp Epidemiol 31:431-55; and Surawicz et al., 2013 Am J Gastroenterol 108:478-98). Recurrent CDI was defined as recurrence of diarrhea after complete resolution of symptoms at any time during the treatment or within 56 days of onset with a positive CDI test (Cohen et al., 2010 Infect Control Hosp Epidemiol 31:431-55).
Stool samples were collected from 88 patients (median age 52.7 years, interquartile range 36.9-65.1; 60.2% female) and clinical outcomes were recorded prospectively. The rate of primary non-response following recommended treatment was 12.5%, and was similar between metronidazole and vancomycin (Table 1).

Structure (SMILES)	rate of primary non-response, comparison between drugs
Cc1ncc([N+](=O)[O-])n1CCO [metronidazole]	similar
CN[C@H](CC(C)C)C(=O)N[C@H]1C(=O)N[C@@H](CC(N)=O)C(=O)N[C@H]2C(=O)N[C@H]3C(=O)N[C@H](C(=O)N[C@H](C(=O)O)c4cc(O)cc(O)c4-c4cc3ccc4O)[C@H](O)c3ccc(c(Cl)c3)Oc3cc2cc(c3O[C@@H]2O[C@H](CO)[C@@H](O)[C@H](O)[C@H]2O[C@H]2C[C@](C)(N)[C@H](O)[C@H](C)O2)Oc2ccc(cc2Cl)[C@H]1O [vancomycin]	similar
